Data taken from article PMC8518114, “Safety, tolerability and pharmacokinetics of emodepside, a potential novel treatment for onchocerciasis (river blindness), in healthy male subjects” (British Journal of Clinical Pharmacology, 2021).

Test system: healthy male subjects
Assay: Safety: treatment-emergent adverse events, MAD study
Format: in vivo, human
Protocol: Safety was assessed by monitoring adverse events (AEs) throughout the studies that were coded using the standard Medical Dictionary for Regulatory Activities (MedDRA) dictionary (versions 19.0 [SAD part 1], 20.0 [SAD part 2] and 21.1 [MAD]). Other safety monitoring included 12‐lead electrocardiography recordings, measurement of vital signs (systolic and diastolic blood pressure and heart rate), physical and neurological (Hamilton depression rating scale[17] and Beck depression inventory‐II fastscreen[18] [SAD only], mental status examination, cranial nerves assessment and motor system examination, sensation to light touch, coordination/cerebellar function assessment, Romberg's test, gait test, daytime sleepiness assessment [SAD and MAD studies]) examinations, haematology, biochemistry and urinalysis. To minimise risks in the SAD and MAD studies, subjects were dosed sequentially using sentinels in each cohort (1 IP, 1 placebo) as per European Medicines Agency guidelines.[19] If the previous dose was well tolerated, with no safety concerns, dose escalation was decided by the Safety Review Group after reviewing safety and PK data from all available cohorts. Moreover, treatment with the highest dose in the SAD study was repeated (cohort 10) for regular ophthalmological evaluations (assessments available as supplementary information) to better characterise visual AEs observed in the SAD study. Regular ophthalmological assessments were also performed in the MAD study.

CC(C)C[C@H]1C(=O)O[C@H](Cc2ccc(N3CCOCC3)cc2)C(=O)N(C)[C@@H](CC(C)C)C(=O)O[C@H](C)C(=O)N(C)[C@@H](CC(C)C)C(=O)O[C@H](Cc2ccc(N3CCOCC3)cc2)C(=O)N(C)[C@@H](CC(C)C)C(=O)O[C@H](C)C(=O)N1C [emodepside]
Any TEAE (LSF 5 mg OD n = 6): 5 (83.3) n (%) | TEAE: Eye disorders (LSF 5 mg OD n = 6): 3 (50.0) n (%) | TEAE: Gastrointestinal disorders (LSF 5 mg OD n = 6): 2 (33.3) n (%) | TEAE: General disorders and administration site disorders (LSF 5 mg OD n = 6): 1 (16.7) n (%) | TEAE: Immune system disorders (LSF 5 mg OD n = 6): 0 n (%) | TEAE: Infections and infestations (LSF 5 mg OD n = 6): 4 (66.7) n (%) | TEAE: Injury, poisoning and procedural complications (LSF 5 mg OD n = 6): 0 n (%) | TEAE: Investigations (LSF 5 mg OD n = 6): 0 n (%) | TEAE: Metabolism and nutrition disorders (LSF 5 mg OD n = 6): 0 n (%) | TEAE: Musculoskeletal and connective tissue disorders (LSF 5 mg OD n = 6): 2 (33.3) n (%) | TEAE: Nervous system disorders (LSF 5 mg OD n = 6): 2 (33.3) n (%) | TEAE: Psychiatric disorders (LSF 5 mg OD n = 6): 2 (33.3) n (%) | TEAE: Respiratory, thoracic and mediastinal disorders (LSF 5 mg OD n = 6): 1 (16.7) n (%) | TEAE: Skin and subcutaneous tissue disorders (LSF 5 mg OD n = 6): 1 (16.7) n (%) | TEAE: Surgical and medicinal procedures (LSF 5 mg OD n = 6): 0 n (%) | Any TEAE (LSF 10 mg BID n = 6): 6 (100) n (%) | TEAE: Eye disorders (LSF 10 mg BID n = 6): 3 (50.0) n (%) | TEAE: Gastrointestinal disorders (LSF 10 mg BID n = 6): 0 n (%) | TEAE: General disorders and administration site disorders (LSF 10 mg BID n = 6): 1 (16.7) n (%) | TEAE: Immune system disorders (LSF 10 mg BID n = 6): 1 (16.7) n (%) | TEAE: Injury, poisoning and procedural complications (LSF 10 mg BID n = 6): 1 (16.7) n (%) | TEAE: Investigations (LSF 10 mg BID n = 6): 1 (16.7) n (%) | TEAE: Metabolism and nutrition disorders (LSF 10 mg BID n = 6): 0 n (%) | TEAE: Musculoskeletal and connective tissue disorders (LSF 10 mg BID n = 6): 1 (16.7) n (%) | TEAE: Nervous system disorders (LSF 10 mg BID n = 6): 0 n (%) | TEAE: Psychiatric disorders (LSF 10 mg BID n = 6): 0 n (%) | TEAE: Respiratory, thoracic and mediastinal disorders (LSF 10 mg BID n = 6): 0 n (%) | TEAE: Skin and subcutaneous tissue disorders (LSF 10 mg BID n = 6): 0 n (%) | TEAE: Surgical and medicinal procedures (LSF 10 mg BID n = 6): 0 n (%) | Any TEAE (LSF 10 mg OD n = 6): 6 (100.0) n (%) | TEAE: Eye disorders (LSF 10 mg OD n = 6): 1 (16.7) n (%) | TEAE: Gastrointestinal disorders (LSF 10 mg OD n = 6): 0 n (%) | TEAE: General disorders and administration site disorders (LSF 10 mg OD n = 6): 1 (16.7) n (%) | TEAE: Immune system disorders (LSF 10 mg OD n = 6): 0 n (%) | TEAE: Infections and infestations (LSF 10 mg OD n = 6): 4 (66.7) n (%) | TEAE: Injury, poisoning and procedural complications (LSF 10 mg OD n = 6): 0 n (%) | TEAE: Investigations (LSF 10 mg OD n = 6): 0 n (%) | TEAE: Metabolism and nutrition disorders (LSF 10 mg OD n = 6): 1 (16.7) n (%) | TEAE: Musculoskeletal and connective tissue disorders (LSF 10 mg OD n = 6): 2 (33.3) n (%) | TEAE: Nervous system disorders (LSF 10 mg OD n = 6): 0 n (%) | TEAE: Psychiatric disorders (LSF 10 mg OD n = 6): 1 (16.7) n (%) | TEAE: Respiratory, thoracic and mediastinal disorders (LSF 10 mg OD n = 6): 0 n (%) | TEAE: Skin and subcutaneous tissue disorders (LSF 10 mg OD n = 6): 1 (16.7) n (%) | TEAE: Surgical and medicinal procedures (LSF 10 mg OD n = 6): 1 (16.7) n (%)
